Test results from patent publication US6291507A, “Chemical compounds” (Astrazeneca UK Limited, priority 1998, dated 2001).

Target: T1, hMCP-1 receptor (MCP-1 receptor B, CCR2B) (Homo sapiens, UniProt P41597)
T1 construct: expressed in transfected cells; host or cells: CHO-K1 (clone 7, CHO-CCR2B), membrane fragments
T1 sequence (P41597 1-360 isoform P41597-2): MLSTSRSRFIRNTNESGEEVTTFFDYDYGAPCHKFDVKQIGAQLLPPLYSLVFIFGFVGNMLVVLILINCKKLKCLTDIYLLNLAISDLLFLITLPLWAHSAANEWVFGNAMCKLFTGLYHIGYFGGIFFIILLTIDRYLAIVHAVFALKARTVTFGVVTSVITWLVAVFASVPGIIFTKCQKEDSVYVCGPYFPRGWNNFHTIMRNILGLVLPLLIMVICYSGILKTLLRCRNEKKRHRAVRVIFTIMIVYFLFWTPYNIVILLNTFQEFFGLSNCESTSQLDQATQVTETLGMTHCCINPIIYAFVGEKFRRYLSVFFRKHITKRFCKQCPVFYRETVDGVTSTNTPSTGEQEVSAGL
Experiment: hMCP-1 receptor-binding assay
Conditions: competition with 100 pM 125I-labelled MCP-1; CHO-CCR2B cell membranes; 0.1-200 μM, eight point dose-response curves in duplicate
Source text: a) hMCP-1 Receptor-binding Assay
The MCP-1 receptor B (CCR2B) cDNA was cloned by PCR from THP-1 cell RNA using suitable oligonucleotide primers based on the published MCP-1 receptor sequences (Charo et al., 1994, Proc. Natl. Acad. Sci. USA, 91, 2752). The resulting PCR products were cloned into vector PCR-II™ (InVitrogen, San Diego, Calif.). Error free CCR2B cDNA was subcloned as a Hind III-Not I fragment into the eukaryotic expression vector pCDNA3 (InVitrogen) to generate pCDNA3/CC-CKR2A and pCDNA3/CCR2B respectively.
Linearised pCDNA3/CCR2B DNA was transfected into CHO-KI cells by calcium phosphate precipitation (Wigler et al., 1979, Cell, 16, 777). Transfected cells were selected by the addition of Geneticin Sulphate (G418, Gibco BRL) at 1 mg/ml, 24 hours after the cells had been transfected. Preparation of RNA and Northern blotting were carried out as described previously (Needham et al., 1995, Prot. Express. Purific., 6, 134). CHO-K1 clone 7 (CHO-CCR2B) was identified as the highest MCP-1 receptor B expressor.
CHO-CCR2B cells were grown in DMEM supplemented with 10% foetal calf serum, 2 mM glutamine, lx Non-Essential Amino Acids, 1× Hypoxanthine and Thymidine Supplement and Penicillin-Streptomycin (at 50 μg streptomycin/ml; Gibco BRL). […]

For `Cc1c2c(n(Cc3ccc(Cl)c(Cl)c3)c1C(=O)O)CCCC2=O` [Example 4a, 1-(3,4-Dichlorobenzyl)-3-methyl-4-oxo-4,5,6,7-tetrahydroindole-2-carboxylicAcid], the IC50 was 400 nM.
